Source: patent publication US20240239766A1, “3-AMINO PIPERIDYL SODIUM CHANNEL INHIBITORS” (Genentech, Inc., priority 2021, published 2024)
Structures can show the parent of a compound that is named as a salt.

Target: hNav1.7 (Homo sapiens (Human), UniProt Q15858)
Assay: Patch voltage clamp electrophysiology assay (EP), Syncropatch 384PE, CHO cells expressing Nav1.7
Assay type: cell-based
Conditions: holding potential −50 mV; 7.5 min compound incubation; read-out: EP SP hNav1.7 EVO (IC50)
Description: Example 101c: Electrophysiological Assay (EP) (In Vitro Assay)
Patch voltage clamp electrophysiology allows for the direct measurement and quantification of block of voltage-gated sodium channels (NaV's), and allows the determination of the time- and voltage-dependence of block which has been interpreted as differential binding to the resting, open, and inactivated states of the sodium channel (Hille, B., Journal of General Physiology (1977), 69: 497-515).
The following voltage clamp electrophysiology studies are performed on representative compounds using cells heterologously expressing Nav1.7 or Nav1.5 channels. cDNAsfor Nav1.7 (NM_002977) and Nav1.5 (AC137587) are stably expressed in Chinese Hamstr Ovary (CHO) cells and CHL (Chinese Hamster Lung) cells respectively. Sodium currents are measured in the whole-cell configuration using Syncropatch 384PE (Nanlon Technologies, Germany). 1NPC®-384 chips with custom medium resistance and single hole mode are used. Internal solution consists of (in mM): […], 10 CsCl, 20 EGTA, and 10 Hepes (pH adjusted to 7.2); and external solution contains (in mM): 60 NMDG, 80 NaCl, 4 KCl, 1 MgCl2, 2 CaCl2), 2 D-Glucose monohydrate, 10 Hepes (pH adjusted to 7.4 with NaOH).
After system flushing, testing compounds are dissolved in external solution containing 0.1% Pluronic F-127. The chip is moved into the measuring head and the instrument primes the chip with external and internal solutions. 10 μl cells are added to the chip from a cell hotel, and a negative pressure of −50 mBar is applied to form a seal. Following treatment with seal enhancer solution and wash-off with external solution, negative pressure of −250 mbar is applied for 1 second to achieve the whole-cell configuration, followed by three washing steps in external solution. 20 μl of compounds is added to 40 μl in each well (1:3 dilution of compounds), and after mixing, 20 μl is removed so the volume is retained at 40 ul. After approximately 13 minutes recordings, 20 μl/well of 2 uM TTX, or 333 uM Tetracaine (for Nav1.5) is added to achieve full block.
For voltage protocol, an holding potential of −50 mV is applied during the whole experiment. A depolarizing step is applied to −10 mV for 10 ms, followed by a hyperpolarization step to −150 mV for 20 ms to allow channel recovery from inactivation. A second depolarizing step is applied from −150 mV to −10 mV for 10 ms, where currents are measured to derive blocking effects of compounds. Inhibition is determined based on 7.5 min of compound incubation.

Chain of hNav1.7 (Q15858 other isoform, or with tags, fused parts or gaps): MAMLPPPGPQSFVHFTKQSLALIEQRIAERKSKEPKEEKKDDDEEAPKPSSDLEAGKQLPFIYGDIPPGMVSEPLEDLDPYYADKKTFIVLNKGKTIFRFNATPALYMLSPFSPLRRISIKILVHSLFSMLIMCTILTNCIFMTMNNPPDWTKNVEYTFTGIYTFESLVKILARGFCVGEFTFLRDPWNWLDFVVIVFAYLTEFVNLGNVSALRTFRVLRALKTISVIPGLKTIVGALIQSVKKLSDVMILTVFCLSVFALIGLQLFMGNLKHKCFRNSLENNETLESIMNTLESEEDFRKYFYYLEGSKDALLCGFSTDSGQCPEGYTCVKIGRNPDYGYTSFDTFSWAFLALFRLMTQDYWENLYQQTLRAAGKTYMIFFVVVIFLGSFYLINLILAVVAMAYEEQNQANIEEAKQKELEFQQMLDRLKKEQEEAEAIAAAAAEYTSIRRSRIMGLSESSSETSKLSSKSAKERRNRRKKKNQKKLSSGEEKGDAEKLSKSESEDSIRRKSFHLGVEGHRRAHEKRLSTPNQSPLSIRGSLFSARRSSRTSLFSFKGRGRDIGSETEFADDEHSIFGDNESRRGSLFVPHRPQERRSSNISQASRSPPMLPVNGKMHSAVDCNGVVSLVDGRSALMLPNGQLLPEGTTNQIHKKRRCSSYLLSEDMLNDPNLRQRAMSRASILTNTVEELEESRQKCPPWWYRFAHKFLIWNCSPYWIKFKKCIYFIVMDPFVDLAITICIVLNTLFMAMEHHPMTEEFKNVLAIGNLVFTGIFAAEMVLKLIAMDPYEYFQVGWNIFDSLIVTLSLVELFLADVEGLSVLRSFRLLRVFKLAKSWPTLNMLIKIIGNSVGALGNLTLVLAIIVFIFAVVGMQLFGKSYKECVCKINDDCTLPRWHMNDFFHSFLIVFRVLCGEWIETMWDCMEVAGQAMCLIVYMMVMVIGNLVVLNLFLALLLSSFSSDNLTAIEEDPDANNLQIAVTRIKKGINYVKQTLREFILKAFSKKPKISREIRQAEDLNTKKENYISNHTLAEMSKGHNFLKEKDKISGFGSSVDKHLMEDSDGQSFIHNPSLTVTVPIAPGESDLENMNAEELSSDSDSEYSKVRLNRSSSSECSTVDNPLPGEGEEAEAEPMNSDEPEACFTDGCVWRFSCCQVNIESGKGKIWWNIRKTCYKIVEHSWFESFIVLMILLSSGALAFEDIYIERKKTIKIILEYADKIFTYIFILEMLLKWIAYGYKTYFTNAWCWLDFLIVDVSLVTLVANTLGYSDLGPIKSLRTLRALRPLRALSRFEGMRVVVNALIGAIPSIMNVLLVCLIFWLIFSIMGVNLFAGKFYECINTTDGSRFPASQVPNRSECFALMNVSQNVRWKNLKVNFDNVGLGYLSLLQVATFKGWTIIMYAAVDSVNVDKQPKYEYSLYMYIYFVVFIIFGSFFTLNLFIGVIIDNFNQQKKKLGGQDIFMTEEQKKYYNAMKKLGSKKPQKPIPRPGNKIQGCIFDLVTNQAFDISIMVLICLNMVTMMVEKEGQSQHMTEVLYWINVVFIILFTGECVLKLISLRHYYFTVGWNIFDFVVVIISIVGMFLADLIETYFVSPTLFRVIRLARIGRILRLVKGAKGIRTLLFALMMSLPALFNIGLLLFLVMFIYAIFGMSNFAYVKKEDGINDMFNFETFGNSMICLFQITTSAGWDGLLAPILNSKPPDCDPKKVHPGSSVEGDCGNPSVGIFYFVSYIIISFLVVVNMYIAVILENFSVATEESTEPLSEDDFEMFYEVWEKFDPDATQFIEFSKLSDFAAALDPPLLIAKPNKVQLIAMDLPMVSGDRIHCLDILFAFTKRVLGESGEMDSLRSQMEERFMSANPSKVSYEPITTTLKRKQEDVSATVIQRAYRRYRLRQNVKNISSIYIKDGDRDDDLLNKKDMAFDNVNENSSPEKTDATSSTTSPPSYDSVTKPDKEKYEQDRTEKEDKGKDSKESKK

Row | Structure (SMILES) | IC50 [nM]
1 | Cc1cc(N2CCC[C@](CCc3cccc(C(F)(F)F)c3)(N(C)C)C2)cc(F)c1S(=O)(=O)Nc1ccncn1 [Example 9, (S)-4-(3-(Dimethylamino)-3-(3-(trifluoromethyl)phenethyl)-piperidin-1-yl)-2-fluoro-6-methyl-N-(pyrimidin-4-yl)benzenesulfonamide] | 597
2 | Cc1cc(N2CCC[C@@](CCc3cccc(C(F)(F)F)c3)(N(C)C)C2)cc(F)c1S(=O)(=O)Nc1ccncn1 [Example 10, (R)-4-(3-(Dimethylamino)-3-(3-(trifluoromethyl)-phenethyl)piperidin-1-yl)-2-fluoro-6-methyl-N-(pyrimidin-4-yl)benzenesulfonamide] | 2.66
3 | CN1CCC(CN(C)C2(CCc3cccc(C(F)(F)F)c3)CCCN(c3ccc(S(=O)(=O)Nc4ccncn4)c(F)c3)C2)C1 (stereo not shown) [Example 31, 2-Fluoro-4-(3-(methyl((1-methylpyrrolidin-3-yl)methyl)amino)-3-(3-(trifluoromethyl)phenethyl)piperidin-1-yl)-N-(pyrimidin-4-yl)benzenesulfonamide formate] | 8.59
4 | CN1CC(N(C)[C@]2(CCc3cccc(C(F)(F)F)c3)CCCN(c3ccc(S(=O)(=O)Nc4ccncn4)c(F)c3)C2)C1 [Example 35, (R)-2-Fluoro-4-(3-(methyl(1-methylazetidin-3-yl)amino)-3-(3-(trifluoromethyl)phenethyl)piperidin-1-yl)-N-(pyrimidin-4-yl)benzenesulfonamide] | 40.7
5 | CN(C)[C@@]1(CCc2cccc(C(F)(F)F)c2Cl)CCCN(c2cc(F)c(S(=O)(=O)Nc3ccncn3)c(F)c2)C1 [Example 40, (S)-4-(3-(2-Chloro-3-(trifluoromethyl)phenethyl)-3-(dimethylamino)piperidin-1-yl)-2,6-difluoro-N-(pyrimidin-4-yl)benzenesulfonamide] | 531
6 | CN(C)[C@]1(CCc2cc(Cl)cc(C(F)(F)F)c2)CCCN(c2cc(F)c(S(=O)(=O)Nc3ccncn3)c(F)c2)C1 [Example 43, (R)-4-(3-(3-Chloro-5-(trifluoromethyl)phenethyl)-3-(dimethylamino)piperidin-1-yl)-2,6-difluoro-N-(pyrimidin-4-yl)benzenesulfonamide] | 0.443
7 | CN(C)[C@@]1(C[C@@H]2CCc3ccc(C(F)(F)F)cc32)CCCN(c2cc(F)c(S(=O)(=O)Nc3ccncn3)c(F)c2)C1 [Example 46, 4-((R)-3-(Dimethylamino)-3-(((S)-6-(trifluoromethyl)-2,3-dihydro-1H-inden-1-yl)methyl)piperidin-1-yl)-2,6-difluoro-N-(pyrimidin-4-yl)benzenesulfonamide formate] | 1320
8 | CN(C)[C@@]1(C[C@H]2CCc3ccc(C(F)(F)F)cc32)CCCN(c2cc(F)c(S(=O)(=O)Nc3ccncn3)c(F)c2)C1 [Example 47, 4-((R)-3-(Dimethylamino)-3-(((R)-6-(trifluoromethyl)-2,3-dihydro-1H-inden-1-yl)methyl)piperidin-1-yl)-2,6-difluoro-N-(pyrimidin-4-yl)benzenesulfonamide formate] | 307
9 | CN(C)[C@]1(C[C@H]2CCc3ccc(C(F)(F)F)cc32)CCCN(c2cc(F)c(S(=O)(=O)Nc3ccncn3)c(F)c2)C1 [Example 48, 4-((S)-3-(Dimethylamino)-3-(((R)-6-(trifluoromethyl)-2,3-dihydro-1H-inden-1-yl)methyl)piperidin-1-yl)-2,6-difluoro-N-(pyrimidin-4-yl)benzenesulfonamide formate] | 1.55
10 | CN(C)[C@]1(C[C@@H]2CCc3ccc(C(F)(F)F)cc32)CCCN(c2cc(F)c(S(=O)(=O)Nc3ccncn3)c(F)c2)C1 [Example 49, 4-((S)-3-(Dimethylamino)-3-(((S)-6-(trifluoromethyl)-2,3-dihydro-1H-inden-1-yl)methyl)piperidin-1-yl)-2,6-difluoro-N-(pyrimidin-4-yl)benzenesulfonamide formate] | 11.1
11 | CN(C)[C@@]1(CCC2CCCCC2)CCCN(c2cc(F)c(S(=O)(=O)Nc3ccncn3)c(F)c2)C1 [Example 92, (S)-4-(3-(2-Cyclohexylethyl)-3-(dimethylamino)piperidin-1-yl)-2,6-difluoro-N-(pyrimidin-4-yl)benzenesulfonamide formate] | 3.82
12 | CN(C)[C@]1(CCC2CCCCC2)CCCN(c2cc(F)c(S(=O)(=O)Nc3ccncn3)c(F)c2)C1 [Example 93, (R)-4-(3-(2-Cyclohexylethyl)-3-(dimethylamino)piperidin-1-yl)-2,6-difluoro-N-(pyrimidin-4-yl)benzenesulfonamide formate] | 245
13 | CN(C)[C@@]1(C2CC(c3cccc(C(F)(F)F)c3)C2)CCCN(c2cc(F)c(S(=O)(=O)Nc3ccncn3)c(F)c2)C1 (stereo partly drawn) [Example 94, 4-((R)-3-(Dimethylamino)-3-((1r,3R)-3-(3-(trifluoromethyl)phenyl)-cyclobutyl)piperidin-1-yl)-2,6-difluoro-N-(pyrimidin-4-yl)benzenesulfonamide] | 127
14 | CN(C)C1(C2CC(c3cccc(C(F)(F)F)c3)C2)CCCN(c2cc(F)c(S(=O)(=O)Nc3ccncn3)c(F)c2)C1 (stereo not shown) [Example 95, 4-(3-(Dimethylamino)-3-(3-(3-(trifluoromethyl)phenyl)-cyclobutyl)piperidin-1-yl)-2,6-difluoro-N-(pyrimidin-4-yl)benzenesulfonamide] | 14.1
15 | CN(C)[C@]1(C2CC(c3cccc(C(F)(F)F)c3)C2)CCCN(c2cc(F)c(S(=O)(=O)Nc3ccncn3)c(F)c2)C1 (stereo partly drawn) [Example 96, 4-((S)-3-(Dimethylamino)-3-((1s,3R)-3-(3-(trifluoromethyl)-phenyl)cyclobutyl)piperidin-1-yl)-2,6-difluoro-N-(pyrimidin-4-yl)benzenesulfonamide] | 1.81
16 | CN(C)[C@@]1(CCc2cccc(C(F)(F)F)n2)CCCN(c2cc(F)c(S(=O)(=O)Nc3ccncn3)c(F)c2)C1 [Example 97, (R)-4-(3-(Dimethylamino)-3-(2-(6-(trifluoromethyl)pyridin-2-yl)ethyl)-piperidin-1-yl)-2,6-difluoro-N-(pyrimidin-4-yl)benzenesulfonamide formate] | 10000
17 | CN(C)[C@]1(CCc2cccc(C(F)(F)F)n2)CCCN(c2cc(F)c(S(=O)(=O)Nc3ccncn3)c(F)c2)C1 [Example 98, (S)-4-(3-(Dimethylamino)-3-(2-(6-(trifluoromethyl)pyridin-2-yl)ethyl)piperidin-1-yl)-2,6-difluoro-N-(pyrimidin-4-yl)benzenesulfonamide formate] | 62.5
18 | CN(C)[C@@]1(CC2CCCC2)CCCN(c2cc(F)c(S(=O)(=O)Nc3ccncn3)c(F)c2)C1 [Example 99, (R)-4-(3-(Cyclopentylmethyl)-3-(dimethylamino)piperidin-1-yl)-2,6-difluoro-N-(pyrimidin-4-yl)benzenesulfonamide] | 8950
19 | CN(C)[C@]1(CC2CCCC2)CCCN(c2cc(F)c(S(=O)(=O)Nc3ccncn3)c(F)c2)C1 [Example 100, (S)-4-(3-(Cyclopentylmethyl)-3-(dimethylamino)piperidin-1-yl)-2,6-difluoro-N-(pyrimidin-4-yl)benzenesulfonamide] | 130
